Source: US11040043B2, “Transdermal pharmaceutical compositions comprising active agents” (priority 2009, dated 2021)
Read-outs that look alike come from different tables or passages of the source. One block for each compound: values may come before it.

Tests used:
clinical = test: clinical; design: species or system human; conditions: in vivo
Excerpt: A multiple-dose, open-label, dose-escalation study was designed in which 12 healthy male subjects were scheduled to receive 1 of 2 treatments once daily for 3 days with an 11-day washout period between doses.
The objective of this Phase 1 study was to assess the safety and pharmacokinetic (PK) profile of multiple dose administration of 0.25 g and 1.00 g of a 0.07% transdermal estradiol gel in healthy male volunteers. The transdermal gel used had the following formulation: […]
Twelve (12) healthy subjects were enrolled and participated in two open-label treatment periods. Subjects who successfully completed the screening process checked into the research center on Day 1, approximately 1 to 2 hours prior to the first blood draw of each treatment period. For Treatment Period A, 0.25 g of the 0.07% gel was to be administered once daily for three days. During Treatment Period B, 1.0 g of the 0.07% gel was to be administered once daily for three days. Dosing days were to be separated by a washout period of at least 11 days.
Diagnosis and Main Criteria for Inclusion: Healthy adult male volunteers, 18-45 years of age, with body mass index (BMI) between 18 and 30 kg/m2, inclusive, and minimum weight of 50 kg (110 pounds).

[1] = Solubility of ethyl oleate as a function of ethanol concentration; assay type: physicochemical; conditions: for Amount of Ethyl Oleate solubilised in g/100 g: room temperature, 0.24% estradiol, 5% propylene glycol, 2% oleic acid, Qsf water
Excerpt: In particular, it appears that the more ester is present in the composition, the better the storage depot effect is. […] An upper limit is imposed, however, by the solubility of the fatty acid ester in the composition.

- AUC0-24 (clinical; male, human): 0.7522 ng·h/mL
- AUC0-120 (clinical; male, human): 2.933 ng·h/mL
- AUC24-48 (clinical; male, human): 0.661 ng·h/mL
- AUC48-72 (clinical; male, human): 0.6581 ng·h/mL
- AUC(0-t) (clinical; male, human): 4.436 ng·h/mL
- Cmax-overall (clinical; male, human): 0.0646 ng/mL
- increase in overall systemic exposure based on AUC0-120 (clinical; male, human): 1.26 fold
- increase in peak systemic exposure based on Cmax0-120 (clinical; male, human): 1.95 fold
- increase of estradiol concentrations above baseline (clinical; male, human): 2- to 3 fold
- ratio (0.25 g: 1.00 g) for estradiol AUC0-120 (clinical; male, human): 80.01%
- ratio (0.25 g: 1.00 g) for estradiol Cmax0-120 (clinical; male, human): 47.89%
- Tmax (clinical; male, human, 0.25 g of 0.07% estradiol gel (Example 10) once daily for 3 days, healthy males, Mean, N 12, read-out: Tmax-overall): 54.8 h
- Tmax (clinical; male, human, 0.25 g, first dosing interval, read-out: Estradiol Tmax after administration of the gel): ~13 h
- Tmax (clinical; male, human, 0.25 g, third dosing interval, read-out: Estradiol Tmax after administration of the gel): ~3 h
- Tmax (clinical; male, human, 1.00 g of 0.07% estradiol gel (Example 10) once daily for 3 days, healthy males, Mean, n 11, read-out: Tmax-overall): 29.8 h
- AUC(0-t) (clinical; male, human, AUC0-24 (hr * pg/mL)): 0.477 ng·h/mL
- AUC(0-t) (clinical; male, human, AUC0-120 (hr * pg/mL)): 2.33 ng·h/mL
- AUC(0-t) (clinical; male, human, AUC0-t (hr * pg/mL)): 3.78 ng·h/mL
- AUC (clinical; male, human, AUC24-48 (hr * pg/mL)): 0.503 ng·h/mL
- AUC (clinical; male, human, AUC48-72 (hr * pg/mL)): 0.477 ng·h/mL
- Cmax (clinical; male, human, Cmax-overall (pg/mL)): 0.0331 ng/mL
SMILES: C[C@]12CC[C@@H]3c4ccc(O)cc4CC[C@H]3[C@@H]1CC[C@@H]2O [Estradiol, estradiol]
- dose proportionality of exposure (clinical): less than proportional increase in exposure

- Amount of Ethyl Oleate solubilised in g/100 g ([1]; EtOH (96% v/v) 64%): 0.65 g/100 g
- Amount of Ethyl Oleate solubilised in g/100 g ([1]; EtOH (96% v/v) 66%): 0.91 g/100 g
- Amount of Ethyl Oleate solubilised in g/100 g ([1]; EtOH (96% v/v) 68%): 1.28 g/100 g
- Amount of Ethyl Oleate solubilised in g/100 g ([1]; EtOH (96% v/v) 70%): 1.60 g/100 g
- Amount of Ethyl Oleate solubilised in g/100 g ([1]; EtOH (96% v/v) 72%): 2.19 g/100 g
- Amount of Ethyl Oleate solubilised in g/100 g ([1]; EtOH (96% v/v) 73%): 2.40 g/100 g
- maximum ethyl oleate that can be dissolved ([1]; formulation comprising 72% ethanol): ≤ 2.2%
SMILES: CCCCCCCC/C=C\CCCCCCCC(=O)OCC [Ethyl Oleate, ethyl oleate]
